From patent publication US12077503B2, “Substituted cyclic amides and their use as herbicides” (FMC CORPORATION, priority 2015, dated 2024)

How the values were obtained:
Assay type in all cases: in vivo
Kochia (Kochia scoparia) [1] = assay: Test A postemergence; details: Bassia scoparia, post-emergence, 240 h, postemergence
Outline: (§1)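 Ratings of 0 (no effect) to 100 (complete control) come from visual comparison with untreated controls roughly 10 d after treatment. Test chemicals, formulated in a non-phytotoxic solvent mixture with surfactant, were applied either as a preemergence directed soil spray on seeded soil or postemergence to one- to two-leaf plants 2 to 10 cm tall.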

corn (Zea mays) = assay: Test A postemergence; details: Zea mays, post-emergence, 240 h, postemergence
Outline: as §1

[2] = test system: giant foxtail (Setaria faberii); assay: Test A postemergence; details: Setaria faberi, post-emergence, 240 h, postemergence
Outline: as §1

[3] = test system: pigweed (Amaranthus retroflexus); assay: Test A postemergence; details: Amaranthus retroflexus, post-emergence, 240 h, postemergence
Outline: as §1

[4] = test system: wheat (Triticum aestivum); assay: Test A postemergence; details: Triticum aestivum, post-emergence, 240 h, 125 g ai/ha, postemergence, visual injury vs untreated controls after approx. 10 d; 0 = no effect, 100 = complete control; read-out: Wheat plant response rating (0 to 100 scale)
Outline: as §1

[5] = test system: ragweed (common ragweed, Ambrosia elatior); assay: Test A postemergence; details: Ambrosia artemisiifolia, post-emergence, 240 h, postemergence
Outline: as §1

[6] = test system: ryegrass, Italian (Italian ryegrass, Lolium multiflorum); assay: Test A postemergence; details: Lolium multiflorum, post-emergence, 240 h, postemergence
Outline: as §1

[7] = test system: barnyardgrass (Echinochloa crus-galli); assay: Test A postemergence; details: Echinochloa crus-galli, post-emergence, 240 h, postemergence
Outline: as §1

[8] = test system: Galium (catchweed bedstraw, Galium aparine); assay: Test A postemergence; details: Galium, post-emergence, 240 h, postemergence
Outline: as §1

Kochia (Kochia scoparia) [9] = assay: Test A preemergence; details: Bassia scoparia, pre-emergence, 240 h, preemergence, 0 to 100 scale where 0 is no effect and 100 is complete control, read-out: Kochia plant response rating
Outline: as §1

[10] = test system: giant foxtail (Setaria faberii); assay: Test A preemergence; details: Setaria faberi, pre-emergence, 240 h, preemergence, 0 to 100 scale where 0 is no effect and 100 is complete control, read-out: Foxtail, Giant plant response rating
Outline: as §1

[11] = test system: pigweed (Amaranthus retroflexus); assay: Test A preemergence; details: Amaranthus retroflexus, pre-emergence, 240 h, preemergence, 0 to 100 scale where 0 is no effect and 100 is complete control, read-out: Pigweed plant response rating
[12] = test system: ragweed (common ragweed, Ambrosia elatior); assay: Test A preemergence; details: Ambrosia artemisiifolia, pre-emergence, 240 h, 500 g ai/ha, preemergence; 0 to 100 scale where 0 is no effect and 100 is complete control; read-out: Ragweed plant response rating
Outline: as §1

[13] = test system: ryegrass, Italian (Italian ryegrass, Lolium multiflorum); assay: Test A preemergence; details: Lolium multiflorum, pre-emergence, 240 h, preemergence, 0 to 100 scale where 0 is no effect and 100 is complete control, read-out: Ryegrass, Italian plant response rating
Outline: as §1

[14] = test system: barnyardgrass (Echinochloa crus-galli); assay: Test A preemergence; details: Echinochloa crus-galli, pre-emergence, 240 h, preemergence, 0 to 100 scale where 0 is no effect and 100 is complete control, read-out: Barnyardgrass plant response rating
Outline: as §1

[15] = 125 g ai/ha, visual injury rating, approximately 10 d

## Cc1cc([C@H]2CNC(=O)[C@@H]2C(=O)Nc2ccccc2C(F)(F)F)ccc1Cl [Compound 1245]
Kochia (Kochia scoparia) [1]; 125 g ai/ha, visual injury vs untreated controls after approx. 10 d, 0 = no effect, 100 = complete control, read-out: Kochia plant response rating (0 to 100 scale)
  pest or weed control at 125 g/ha: 0%
Kochia (Kochia scoparia) [1]; 500 g ai/ha, 0 to 100 scale, 0 is no effect, 100 is complete control, read-out: Kochia plant response rating
  pest or weed control at 500 g/ha: 40%
Corn (Zea mays); 125 g ai/ha, visual injury vs untreated controls after approx. 10 d, 0 = no effect, 100 = complete control, read-out: Corn plant response rating (0 to 100 scale)
  plant injury at 125 g/ha: 0%
Corn (Zea mays); 500 g ai/ha, 0 to 100 scale, 0 is no effect, 100 is complete control, read-out: Corn plant response rating
  plant injury at 500 g/ha: 0%
[2]; 125 g ai/ha, visual injury vs untreated controls after approx. 10 d, 0 = no effect, 100 = complete control, read-out: Foxtail, Giant plant response rating (0 to 100 scale)
  pest or weed control at 125 g/ha: 20%
[2]; 500 g ai/ha, 0 to 100 scale, 0 is no effect, 100 is complete control, read-out: Foxtail, Giant plant response rating
  pest or weed control at 500 g/ha: 60%
[3]; 125 g ai/ha, visual injury vs untreated controls after approx. 10 d, 0 = no effect, 100 = complete control, read-out: Pigweed plant response rating (0 to 100 scale)
  pest or weed control at 125 g/ha: 0%
[3]; 500 g ai/ha, 0 to 100 scale, 0 is no effect, 100 is complete control, read-out: Pigweed plant response rating
  pest or weed control at 500 g/ha: 0%
[4]
  plant injury at 125 g/ha: 0%
[5]; 125 g ai/ha, visual injury vs untreated controls after approx. 10 d, 0 = no effect, 100 = complete control, read-out: Ragweed plant response rating (0 to 100 scale)
  pest or weed control at 125 g/ha: 0%
[5]; 500 g ai/ha, 0 to 100 scale, 0 is no effect, 100 is complete control, read-out: Ragweed plant response rating
  pest or weed control at 500 g/ha: 50%
[6]; 125 g ai/ha, visual injury vs untreated controls after approx. 10 d, 0 = no effect, 100 = complete control, read-out: Ryegrass, Italian plant response rating (0 to 100 scale)
  pest or weed control at 125 g/ha: 0%
[6]; 500 g ai/ha, 0 to 100 scale, 0 is no effect, 100 is complete control, read-out: Ryegrass, Italian plant response rating
  pest or weed control at 500 g/ha: 0%
[7]; 125 g ai/ha, visual injury vs untreated controls after approx. 10 d, 0 = no effect, 100 = complete control, read-out: Barnyardgrass plant response rating (0 to 100 scale)
  pest or weed control at 125 g/ha: 40%
[7]; 500 g ai/ha, 0 to 100 scale, 0 is no effect, 100 is complete control, read-out: Barnyardgrass plant response rating
  pest or weed control at 500 g/ha: 90%
[8]; 125 g ai/ha, visual injury vs untreated controls after approx. 10 d, 0 = no effect, 100 = complete control, read-out: Galium plant response rating (0 to 100 scale)
  pest or weed control at 125 g/ha: 30%
[8]; 500 g ai/ha, 0 to 100 scale, 0 is no effect, 100 is complete control, read-out: Galium plant response rating
  pest or weed control at 500 g/ha: 50%
Kochia (Kochia scoparia) [9]; [15]
  pest or weed control at 125 g/ha: 0%
Kochia (Kochia scoparia) [9]; 500 g ai/ha
  pest or weed control at 500 g/ha: 20%
[10]; [15]
  pest or weed control at 125 g/ha: 80%
[10]; 500 g ai/ha
  pest or weed control at 500 g/ha: 90%
[11]; [15]
  pest or weed control at 125 g/ha: 0%
[11]; 500 g ai/ha
  pest or weed control at 500 g/ha: 0%
[12]
  pest or weed control at 500 g/ha: 20%
[13]; [15]
  pest or weed control at 125 g/ha: 0%
[13]; 500 g ai/ha
  pest or weed control at 500 g/ha: 60%
[14]; [15]
  pest or weed control at 125 g/ha: 50%
[14]; 500 g ai/ha
  pest or weed control at 500 g/ha: 80%
